Counter-ions that a name gives are not always drawn.
How the values were obtained:
[1] = tested on: IL-1β action on murine thymocytes; test: Inhibition of IL-1 action (IL-1 assay): suppression of IL-1β + PHA stimulated murine thymocyte proliferation; assay type: cell-based, mouse (C3H/HeN); settings: 50% suppression of proliferation, 72 h culture
Method: The ability of the above compounds to suppress the cell-proliferative effect of IL-1β in vitro (O'Gara, 1990) was examined as described in Example 11. Mouse thymocytes in culture were stimulated with IL-1β in the presence of phytohemagglutinin (PHA) and increasing concentrations of triptolide (control) and triptolide derivatives. The cells were cultured for 72 hours, and during the last 18 hours, incubated with tritiated thymidine. DNA synthesis was assessed by measuring incorporation of radiolabeled thymidine. The results expressed in terms of IC50 (concentration effective to cause 50% suppression of proliferation) are shown in Table 1.
C3H/HeN mouse thymocytes were prepared and the action of IL-1 together with PHA, which stimulate proliferation of thymocyte, was measured using standard techniques (O'Gara, 1990; Mishell, 1980). Three- to six-week old C3H/HeN male mice (Simonson Laboratory, Gilroy, Calif.) were sacrificed by CO2 inhalation. Thymi were removed, separated from adherent non-thymic tissue, homogenized in Hank's balanced salt solution (HBSS, Gibco) using a glass homogenizer, and centrifuged at 200×g for 10 minutes at 15° C. Following an additional wash in HBSS, the thymocytes were resuspended in RPMI 1640 medium containing 50 uM 2-mercaptoethanol, 2 mM glutamine, 1 mM sodium pyruvate, non-essential amino acids 100 U/ml penicillin, 100 μg/ml streptomycin, and 10% heat-inactivated fetal bovine serum.
Cells were cultured in round-bottom 96 well microtiter tissue culture plates, 6×10^5 cells per well, in a volume of 100 μl. Recombinant human IL-1β (R & D Systems #201-LB) together with Phytohemagglutinin P (PHA, Pharmacia) were added to the cells in volume of 25 μl per well to achieve a final concentration of 0.08 ng/ml and 10 μg/ml, respectively. Samples were dissolved in DMSO (10 mg/ml), then diluted in culture medium. Twenty five microliters of the test sample was added to each well to achieve the final compound concentrations for each experiment. Cells with PHA together with IL-1 served as controls. The total volume for each well was 150 μl.
Plates were incubated at 37° C. in a 5% CO2 incubator for 72 hours. Fifty microliters of culture medium containing 0.5 μCi (^3 H)-thymidine (Amersham, 49 Ci/mmol) was added to each well prior to the last 18 hours of incubation. Cells were then harvested and counted. The results were reported as counts per minute (cpm) per 6×10^5 cells.
The following formula was used to calculate the percent of suppression of IL-1 activity, and IC50 (concentration of sample yielding 50% suppression of proliferation) was used to indicate the suppressive activity of the sample.
% suppression of IL-1 activity=(1-sample cpm/(IL-1+PHA control

[2] = tested on: mixed lymphocyte reaction (spleen cells from female C57BL/6 mice, stimulated with Balb/C spleen cells); test: Mixed lymphocyte reaction (MLR) assay; assay type: cell-based, mouse; settings: 50% suppression of proliferation
Method: Inhibition of cell proliferation by the subject compounds was assayed in the mixed lymphocyte reaction (MLR) (Bradley, 1980; Mishell, 1980). Spleen cells from female C57BL/6 mice, the "responder" cells, were prepared and co-cultured alone or in the presence of varying concentrations of the test compounds, with irradiated spleen cells prepared from female Balb/C mice, the "stimulator" cells. Prior irradiation of the stimulator cells rendered them unable to proliferate. A sample of the responder cells was also irradiated for use as a control. The non-irradiated responder cells proliferate in the presence of the allogenic stimulator cells. After a 78-hour incubation, tritiated thymidine was added to the mixed cell cultures, and incorporation of the labeled nucleotide into DNA was measured as an index of cell proliferation.
In this study, the responder cells (R) were spleen cells from female C57BL16 mice, and the stimulator cells (S) were spleen cells from female Balb/C mice 6 to 8 weeks of age (Jackson, Bar Harbor, Me.). The spleens were aseptically removed from the mice and placed into 10 ml of cold HBSS in a sterile petri dish. The spleen was cut in half and gently pressed between the frosted ends of 2 sterile microslides. The cell suspension was then filtered through sterile nylon mesh (Nytex, Tetco #HD-3-85) into a 15 ml conical polypropylene centrifuge tube and centrifuged at 200×g for 10 minutes in a Beckman GPR tabletop centrifuge (GH-3.7 Rotor). Following an additional wash in HBSS, the spleen cells were resuspended in RPMI 1640 medium (Gibco) containing 50 uM 2-mercaptoethanol, 2 mM glutamine, 100 U/ml penicillin, 100 μg/ml streptomycin and 10% heat-inactivated fetal bovine serum.
The stimulator cells (S) and part of the responder cells (R) were diluted at 10×10^6 cells/ml and irradiated at 20 cGy with a Cesium Irradiator (Department of Radiation Oncology, Stanford University, California) to inhibit proliferation. The irradiated cells were washed once to remove any toxic free radicals and their products resulting from irradiation. The responder cells (R), irradiated stimulator cells (Sx) and irradiated responder cell (Rx) were all diluted to 4×10^6 cells/ml.
In the assay, 4×10^5 cells of R were cocultured with 4×10^5 cells of Sx in 200 μl of medium in round bottom 96 well tissue culture plates. Fifty micro-liters of test samples at various concentrations were added to the cells. The wells receiving no test samples would get the maximum proliferation. Several controls were used in the assay. The irradiated responder cells (Rx) were also added to the responder cells with and without the test samples. Rx or Sx alone were checked to make sure no proliferation occurred after irradiation. The spontaneous proliferation of R was also measured.
The culture plates were incubated at 37° C. in a 5% CO2 incubator for four days. The cells were labelled with 1 μCi of (^3 H)-thymidine (Amersham, 49 Ci/mmol) in 20 μl of medium for the last 18 hours. Cells were then harvested and counted. The results were reported as counts per minute (cpm) per well. Percent of suppression and IC50 (concentration of sample producing 50% suppression of proliferation) were used to indicate the suppressive activity of the sample. Sample cpm was calculated as (R+Sx+sample)cpm-(R+Rx+sample)cpm; control cpm was calculated as (R+Sx)cpm-(R+Rx)cpm. Percent suppression of MLR activity was calculated as (1-sample cpm/control cpm)×100. IC50 was determined from percent suppression to indicate the suppressive activity of the sample.

CC(C)C12OC1C1OC13C1(C)CCC4=C(COC4=O)C1CC1OC13C2OC(=O)CCC(=O)O (stereo not shown) [YM-276, Triptolide Succinate Lysine Salt]
IL-1 Assay IC50 [1]: 0.144 µg/mL | IC50 ([1]; read-out: IL-1 Assay IC50): 238 nM | MLR Assay IC50 [2]: 0.063 µg/mL | IC50 ([2]; read-out: MLR Assay IC50): 104 nM

— patent publication US5962516A, “Immunosuppressive compounds and methods” (priority 1999, dated 1999)
